“And” between values parts separate entries of the source, which are not always exact repeats. Equal entries are not always repeated. “Also recorded” adds a separate entry of the source.
Legend:
[1] = test system: unstimulated human platelets; test: [3H]LXA4 uptake into platelets; format: cell-based; conditions: 0.5 mM DISA, 5 nM LXA4
Protocol: Platelets: Platelets were purified to homogeneity from acid citrate dextrose-treated blood according to established protocols (Romano, M. and Serhan, C. N. (1992) Biochemistry 31:8269-8277).
(§1) Human red cells, lymphocytes, and platelets were isolated from peripheral blood as described under Methods. Undifferentiated HL-60 cells were grown in culture according to standard protocols. Differentiated HL-60 cells were obtained by exposing cells to 1 μM retinoic acid for 5 days in culture. After harvesting and isolation, all cells were kept in the standard medium for 1 hour at 37° C. prior to assay. […] Results represent the means±SEM of three-four separate experiments for each cell type.

[2] = test system: unstimulated human erythrocytes; test: [3H]LXA4 uptake into erythrocytes; format: cell-based; conditions: 0.5 mM DISA, 5 nM LXA4
Protocol: Red Blood Cells (RBC): RBC were obtained directly from the heparinized blood of normal human donors. During repeated (four) washing steps, the uppermost portion of the cell pellets was aspirated and discarded to remove residual minor contamination of buffy coat cells.
as §1

lipoxin transport system [3] = test: [3H]LXA4 influx into human neutrophils (unidirectional tracer flux); conditions: for final [3H]LXA4 uptake (combined data) / initial [3H]LXA4 influx rate (combined data): combined data: Control, 0.4 mM SITS, 1 mM probenecid, Na+-free medium, high K+ medium; for effect on [3H]LXA4 influx: probenecid 1 mM, SITS 0.4 mM
[4] = target: T1, specific lipoxin receptors (Homo sapiens, UniProt P25090); test: [3H]LXA4 ligand binding to human neutrophils
T1 sequence (P25090 1-351): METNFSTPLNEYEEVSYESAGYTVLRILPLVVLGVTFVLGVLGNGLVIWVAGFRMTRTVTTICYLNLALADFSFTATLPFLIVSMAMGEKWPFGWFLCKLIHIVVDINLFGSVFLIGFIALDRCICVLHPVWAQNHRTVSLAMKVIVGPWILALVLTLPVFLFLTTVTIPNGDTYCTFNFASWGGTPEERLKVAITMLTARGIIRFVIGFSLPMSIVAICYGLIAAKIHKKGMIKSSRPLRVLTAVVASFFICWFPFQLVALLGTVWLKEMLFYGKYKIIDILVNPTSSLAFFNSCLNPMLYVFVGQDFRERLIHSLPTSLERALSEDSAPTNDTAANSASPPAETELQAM
Protocol: (§2) Influx rates were calculated by fitting the data points to a single exponential equation (Eq. 1). Results have been taken from three experiments based upon duplicate determinations. […] Specific binding was taken as the difference between total and non-specific binding. […] Results are from three separate experiments, each performed in triplicate.

[5] = test system: unstimulated human lymphocytes; test: [3H]LXA4 uptake into lymphocytes; format: cell-based; conditions: 0.5 mM DISA, 5 nM LXA4
Protocol: Lymphocvtes: The lymphocyte-rich interface layer was taken at the Ficoll-Hypaque gradient step of the neutrophil purification procedure. Platelets were removed by slow-speed centrifugation (see below) and contaminating monocytes and neutrophils by adherence to plastic Petri dishes for 1 hour at 37 ° C.
as §1

[6] = test system: undifferentiated HL-60 cells; test: [3H]LXA4 uptake into undifferentiated HL-60 cells; format: cell-based, human; conditions: 0.5 mM DISA, 5 nM LXA4
Protocol: (§3) HL-60 Cells: HL-60 cells were seeded into RPMI medium supplemented with 100 U/ml penicillin, 100 μg/ml streptomycin, and 10% fetal calf serum (Hyclone, Logan, Utah) and grown at 37° C. in 250 ml flasks in a 5% CO2 /95% air atmosphere. Cells were induced to differentiate toward a neutrophil-like phenotype by exposure to 1 μM retinoic acid for 5 days.
as §1

human neutrophils [7] = conditions: 500 µM
human neutrophils [8] = test: [3H]LXA4 methyl ester influx into human neutrophils; format: cell-based
Protocol: Incubations were performed at 37° C. in capped, plastic tubes (Falcon Plastics, Oxnard, Calif.) under various experimental conditions (neutrophils 15-20×10^6 /ml). […] At stated intervals, duplicate aliquots of the cell suspensions were layered onto 0.5 ml of silicone oil (Versilube F-5, General Electric Corp., Waterford, N.Y.) contained in 1.5 ml plastic tubes and centrifuged for 1 min at 8,000 g in a microcentrifuge (Beckman Instruments, Fullerton, Calif.).
The aqueous and oil phases were aspirated and discarded. […] Influx is expressed here as fmol/10^6 cells/min whereas flux rates in all previous work from our laboratory (L.S.) have been reported in meq/liter of cell water.min.
as §2

[9] = test system: retinoic acid-induced HL-60 cells; test: [3H]LXA4 uptake into retinoic acid-induced HL-60 cells; format: cell-based, human; conditions: 0.5 mM DISA, 5 nM LXA4
Protocol: as §3, §1

neutrophils = test: Phagocytosis of opsonized sheep red blood cells by neutrophils; format: cell-based, human; conditions: 100 nM or 1000 nM, pH 7.4, 37° C., 30 minutes
Protocol: Neutrophils were prepared as described in the general methodology and suspended at a concentration of 10×10^6 -15×10^6 cells/ml in Hepes Hanks buffer, pH 7.4, supplemented with 1 mg/ml BSA, 1 mg/ml glucose, 0.5 mM MgCl2 and 1.0 mM CaCl2 --2H2 O.
The sheep red blood cells (SRBCs) were prepared by washing the cells with 1× veronal-buffered saline (VBS), incubating the cells with a 1:500 dilution of rabbit anti-SRBC IgG antibody at 37° C. for 15 minutes, centrifuging the cells at 2000 rpm for 5 minutes at 4° C. and washing the cells twice with 1×VBS. SRBCs were resuspended at a final concentration of 10×10^8 cells/ml.
Each component was pipetted separately to the bottom of a 12×75 mm test tube to allow thorough mixing of the components.
To each 100 μl mixture was added 15 μl of opsonized SRBCs to start the phagocytosis reaction. The tubes were vortexed and placed in a 37° C. incubator for 30 minutes. After 30 minutes, the tubes were placed on ice to stop the reaction.
Non-phagocytosed SRBCs were lysed by adding 1.0 ml of 0.83% NH4 Cl to each tube, with shaking, and centrifuging the tubes quickly at 1500 rpm for 3 minutes. The supernatant was removed and the pellets were resuspended in 30 gl of PBS. The 30 μl solution was placed onto a polylysine-coated microscope slide and after 15 minutes the excess solution was removed from the slide. The cells on the slide were fixed with 1% glutaraldehyde for 5 minutes and then the excess glutaraldehyde was removed. The cells were stained with Giemsa Stain by immersing the slide in the stain for 25 minutes, rinsing the slide with water and allowing the slide to dry overnight.
The slides were examined with a light microscope at 100×power. SRBCs which were phagocytosed by neutrophils were visible as yellow cells within blue-stained neutrophils. The results for each reaction were expressed as a phagocytic index, representing the number of SRBCs phagocytosed per 100 neutrophils. […]

protein kinase C (PKC) = conditions: about 10 nM; cited from earlier work
[10] = nM levels; cited from earlier work
[11] = test system: H+ +lactate- cotransporter; conditions: cited from earlier work
sulfate carrier = conditions: cited from earlier work
lipoxin transport system [12] = test: Irreversible inhibition of [3H]LXA4 influx after pretreatment of neutrophils with sulfhydryl-reactive agents; format: cell-based, human
Cl-/HCO3- exchanger = conditions: cited from earlier work

In the case of `O=C(O)c1cc(I)cc(I)c1O` [DISA, 3,5-diiodo-salicylic acid], the “[3H]LXA4 Uptake Rate in the presence of DISA” value (“[3H]LXA4 Uptake Rate” below) [1] is reported as -0.0005 ± 0.0015 fmol/10^6 cells/min, the “[3H]LXA4 Uptake Rate” value [2] is reported as 0.0019 ± 0.0008 fmol/10^6 cells/min and the “inhibition of FMLP-enhanced [3H]LXA4 uptake” value (lipoxin transport system [3]; 100 nM FMLP + DISA) is reported as “completely sensitive to inhibition”. The “inhibition of PMA-induced enhancement of [3H]LXA4 influx” value (lipoxin transport system [3]; 100 nM PMA + DISA) was “competely sensitive to inhibition”, the “[3H]LXA4 uptake by 1 min of incubation” value (lipoxin transport system [3]; 0.5 mM DISA) was 2.9 fmol/10^6 cells and the “effect on transport system-mediated component of uptake” value (lipoxin transport system [3]; 0.5 mM DISA) was “completely blocks; also recorded: markedly sensitive; also recorded: blocked”. For the same compound, the “slope of straight-line fit of [3H]LXA4 uptake in presence of drug” value (lipoxin transport system [3]; 0.5 mM DISA, 5 nM LXA4, not distinguishable from zero) was 0.0046±0.0051 fmol/10^6 cells/min, the “cell-associated [3H]LXA4, average of all data points” value (lipoxin transport system [3]; 0.5 mM DISA, 1-30 min) was 2.88 fmol/10^6 cells and the “inhibition of [3H]LXA4 influx” value (lipoxin transport system [3]; 0.5 mM drug) was over 80%. The “effect on uptake of [3H]LXA4” value (lipoxin transport system [3]; each at 0.2-0.5 mM) was “inhibited the uptake”, the IC50 (lipoxin transport system [3]; read-out: K0.5, concentration at which 50% of lipoxin transport is inhibited, drug 0-500 μM, uptake at 10 and 20 min, Michaelis-Menten inhibition kinetics) was 12 ± 2 µM and the “effect on binding of lipoxin to specific receptors” value [4] was “not inhibitable”. For the same compound, the “[3H]LXA4 Binding, non-specific, in presence of drug” value ([4]; 0.5 mM drug, + unlabeled LXA4 0.3 μM) was 0.41 ± 0.05 fmol/10^6 cells, the “[3H]LXA4 Binding, total, in presence of drug” value ([4]; 0.5 mM drug, no unlabeled LXA4) was 1.23 ± 0.08 fmol/10^6 cells and the “[3H]LXA4 Uptake Rate” value [5] was 0.0053 ± 0.0036 fmol/10^6 cells/min. For the same compound, the “[3H]LXA4 Uptake Rate” value [6] was 0.12 ± 0.02 fmol/10^6 cells/min, the “efflux final value (relative cell content, combined data set)” value (human neutrophils [7]) was 0.46±0.02 and the “efflux rate coefficient (combined data set)” value (human neutrophils [7]) was 0.098 ± 0.008 min⁻¹. The “[3H]LXA4 ME Influx in presence of drug” value (human neutrophils [8]; 0.5 mM drug) was 481 ± 170 fmol/10^6 cells/min, the “effect of drugs on [3H]LXA4 ME influx” value (human neutrophils [8]; DISA 0.5 mM, PCP 0.4 mM, mersalyl 0.5 mM) was “completely resistant” and the “[3H]LXA4 Uptake Rate” value [9] was 0.08 ± 0.02 fmol/10^6 cells/min.

In the case of `CCCCC[C@H](O)[C@H](O)/C=C/C=C/C=C\C=C\[C@@H](O)CCCC(=O)O` [LXB4, lipoxin B4], the “effect on neutrophil phagocytosis, phagocytic index” value (neutrophils) is listed as “inhibit phagocytosis”, the “effect on PKC activity” value (protein kinase C (PKC)) is listed as “enhance” and the “vasodilation” value [10] is listed as “elicit prompt vasodilation”.

In the case of `CCN1C(=O)C=CC1=O` [NEM, N-ethylmaleimide], the “effect on H+ +lactate- cotransport / lactic acid fluxes” value [11] is listed as “completely blocked” and the “effect of SH-reactive compounds on [3H]LXA4 influx” value (lipoxin transport system [3]; 1 mM NEM, 0.4 mM iodoacetate) is listed as “lacked efficacy; also recorded: do not inhibit”.

For `CC(=O)Nc1ccc(C=Cc2ccc(N=C=S)cc2S(=O)(=O)O)c(S(=O)(=O)O)c1` [SITS, 4-acetamido-4'-isothiocyanostilbene-2,2'-disulfonic acid], the “final [3H]LXA4 uptake (combined data)” value (lipoxin transport system [3]; 5 nM LXA4) was 7.26±0.26 fmol/10^6 cells, the “initial [3H]LXA4 influx rate (combined data)” value (lipoxin transport system [3]; 5 nM LXA4) was 0.57±0.09 fmol/10^6 cells/min and the “effect on [3H]LXA4 influx” value (lipoxin transport system [3]) was “no apparent impact; also recorded: not inhibited”. For the same compound, the “sensitivity of the sulfate carrier” value (sulfate carrier) was “very sensitive”.

In the case of `O=C(O)c1cc[c]([Hg+])cc1.[OH-]` [pHMB, p-hydroxymercuribenzoate], the “% Inhibition of Transport (irreversible)” value (lipoxin transport system [12]) is given as ~ 65% and 66 ± 4%, the “effect on binding of lipoxin to specific receptors” value [4] is given as “not inhibitable” and the “effect on Cl-/HCO3- exchange” value (Cl-/HCO3- exchanger) is given as “resistant”.

With `CCCN(CCC)S(=O)(=O)c1ccc(C(=O)O)cc1` [probenecid] the “final [3H]LXA4 uptake (combined data)” value (lipoxin transport system [3]; 5 nM LXA4) was 7.26±0.26 fmol/10^6 cells, the “initial [3H]LXA4 influx rate (combined data)” value (lipoxin transport system [3]; 5 nM LXA4) was 0.57±0.09 fmol/10^6 cells/min and the “effect on [3H]LXA4 influx” value (lipoxin transport system [3]) was “no apparent impact; also recorded: not inhibited”. The “sensitivity of the sulfate carrier” value (sulfate carrier) was “very sensitive”.
